In patent US6914045B2, “Glycopeptide antibiotics” (Wyeth Holdings Corporation, priority 2001, dated 2005):
≈ marks a conversion by molar mass, not a printed value.

What was measured:
Assay in all cases: in vitro antibacterial evaluation, MIC by broth dilution
Assay type in all cases: cell-based
[1] = tested on: Staphylococcus sp.; conditions: broth dilution, 18 hours at 35° C.
In short: (§1)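 Broth dilution per NCCLS M7-A2 in Mueller-Hinton II medium, inoculum 5×10^5 CFU/mL, antibiotic range 64-0.06 μg/mL. MIC taken as lowest concentration inhibiting growth; Gram-positive panel includes recent clinical isolates resistant to methicillin, penicillin and/or vancomycin.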

[2] = tested on: Streptococcus sp.; conditions: broth dilution, 18 hours at 35° C.
In short: as §1

[3] = tested on: Enterococcus sp.; conditions: broth dilution, 18 hours at 35° C.
In short: as §1

[4] = tested on: Escherichia coli; conditions: 18 hours at 35° C.
In short: as §1

**Q.** `CCCCOC(=O)CCC1OCC2OC(OC3C(CO)OC(Oc4ccc(CC5NC(=O)C(C(C)c6ccccc6)NC(=O)CNC(=O)C(CO)NC(=O)C(C(O)C6CNC(=N)N6C6OC(CO)C(O)C(O)C6O)NC(=O)C(C(O)C6CNC(=N)N6)NC5=O)cc4)C(O)C3O)C(O)C(O)C2O1` (stereo not drawn) [Example 114, Cyclo[glycyl-β-methylphenylalanyl-O-[4-O-[4,6-O-(4-butoxy-4-oxobutylidene)hexopyranosyl]-hexopyranosyl]tyrosyl-3-(2-iminoimidazolidin-4-yl)seryl-3-(3-hexopyranosyl-2-iminoimidazolidin-4-yl)serylseryl]] was tested. Which “MIC Coagulase Negative Staphylococcus (GC 4547)” value [1] did it give?
**A.** 2 µg/mL (≈ 1.39 µM)

**Q.** What about the “MIC Coagulase Negative Staphylococcus (GC 4548)” value [1] of the same molecule?
**A.** 1 µg/mL (≈ 0.697 µM)

**Q.** What about the “MIC Coagulase Negative Staphylococcus (GC 4549)” value [1] of the same molecule?
**A.** 2 µg/mL (≈ 1.39 µM)

**Q.** And the “MIC Coagulase Negative Staphylococcus (GC 4551)” value [1]?
**A.** 2 µg/mL (≈ 1.39 µM)

**Q.** And the “MIC Coagulase Negative Staphylococcus (GC 6257)” value [1]?
**A.** 1 µg/mL (≈ 0.697 µM)

**Q.** What about the “MIC Staphylococcus aureus (ATCC 29213)” value [1] of the same molecule?
**A.** 2 µg/mL (≈ 1.39 µM)

**Q.** What about the “MIC Staphylococcus aureus (GC 1131)” value [1] of the same molecule?
**A.** 2 µg/mL (≈ 1.39 µM)

**Q.** And the “MIC Staphylococcus aureus (GC 3051)” value [1]?
**A.** 2 µg/mL (≈ 1.39 µM)

**Q.** And the “MIC Staphylococcus aureus (GC 3053)” value [1]?
**A.** 2 µg/mL (≈ 1.39 µM)

**Q.** What about the “MIC Staphylococcus aureus (GC 4541)” value [1] of the same molecule?
**A.** 2 µg/mL (≈ 1.39 µM)

**Q.** What about the “MIC Staphylococcus aureus (GC 4542)” value [1] of the same molecule?
**A.** 1 µg/mL (≈ 0.697 µM)

**Q.** What about the “MIC Staphylococcus aureus (GC 4544)” value [1] of the same molecule?
**A.** 2 µg/mL (≈ 1.39 µM)

**Q.** What about the “MIC Staphylococcus aureus (GC 4545)” value [1] of the same molecule?
**A.** 2 µg/mL (≈ 1.39 µM)

**Q.** What about the “MIC Staphylococcus aureus-SMITH (GC 4543)” value [1] of the same molecule?
**A.** 2 µg/mL (≈ 1.39 µM)

**Q.** And the “MIC Staphylococcus haemolyticus (GC 4546)” value [1]?
**A.** 1 µg/mL (≈ 0.697 µM)

**Q.** And the “MIC Staphylococcus aureus (GC 1131)” value ([1]; inoculum 5×10^5 CFU/mL, strain GC 1131)?
**A.** 2 µg/mL (≈ 1.39 µM)

**Q.** What about the “MIC Staphylococcus aureus (ATCC 29213)” value ([1]; strain ATCC 29213) of the same molecule?
**A.** 2 µg/mL (≈ 1.39 µM)

**Q.** What about the “MIC Staphylococcus aureus (GC 3051)” value ([1]; strain GC 3051) of the same molecule?
**A.** 2 µg/mL (≈ 1.39 µM)

**Q.** What about the “MIC Staphylococcus aureus (GC 3053)” value ([1]; strain GC 3053) of the same molecule?
**A.** 2 µg/mL (≈ 1.39 µM)

**Q.** What about the “MIC Staphylococcus aureus (GC 4541)” value ([1]; strain GC 4541) of the same molecule?
**A.** 2 µg/mL (≈ 1.39 µM)

**Q.** And the “MIC Staphylococcus aureus (GC 4542)” value ([1]; strain GC 4542)?
**A.** 1 µg/mL (≈ 0.697 µM)

**Q.** And the “MIC Staphylococcus aureus (GC 4544)” value ([1]; strain GC 4544)?
**A.** 2 µg/mL (≈ 1.39 µM)

**Q.** And the “MIC Staphylococcus aureus (GC 4545)” value ([1]; strain GC 4545)?
**A.** 2 µg/mL (≈ 1.39 µM)

**Q.** What about the “MIC Staphylococcus haemolyticus (GC 4546)” value ([1]; strain GC 4546) of the same molecule?
**A.** 1 µg/mL (≈ 0.697 µM)

**Q.** And the “MIC Coagulase Negative Staphylococcus (GC 4547)” value ([1]; strain GC 4547)?
**A.** 2 µg/mL (≈ 1.39 µM)

**Q.** What about the “MIC Coagulase Negative Staphylococcus (GC 4548)” value ([1]; strain GC 4548) of the same molecule?
**A.** 1 µg/mL (≈ 0.697 µM)

**Q.** What about the “MIC Coagulase Negative Staphylococcus (GC 4549)” value ([1]; strain GC 4549) of the same molecule?
**A.** 2 µg/mL (≈ 1.39 µM)

**Q.** What about the “MIC Coagulase Negative Staphylococcus (GC 4551)” value ([1]; strain GC 4551) of the same molecule?
**A.** 2 µg/mL (≈ 1.39 µM)

**Q.** And the “MIC Coagulase Negative Staphylococcus (GC 6257)” value ([1]; strain GC 6257)?
**A.** 1 µg/mL (≈ 0.697 µM)

**Q.** What about the “MIC Staphylococcus aureus-SMITH (GC 4543)” value ([1]; strain SMITH GC 4543) of the same molecule?
**A.** 2 µg/mL (≈ 1.39 µM)

**Q.** What about the “MIC Streptococcus agalactiae (GC 4564)” value ([2]; Streptococcus agalactiae (GC 4564)) of the same molecule?
**A.** 0.5 µg/mL (≈ 0.348 µM)

**Q.** What about the “MIC Streptococcus pneumoniae (ATCC 6301)” value ([2]; Streptococcus pneumoniae (ATCC 6301)) of the same molecule?
**A.** 0.12 µg/mL (≈ 0.0836 µM)

**Q.** What about the “MIC Streptococcus pneumoniae (GC 1894)” value ([2]; Streptococcus pneumoniae (GC 1894)) of the same molecule?
**A.** <0.06 µg/mL

**Q.** What about the “MIC Streptococcus pneumoniae (GC 4565)” value ([2]; Streptococcus pneumoniae (GC 4565)) of the same molecule?
**A.** 0.25 µg/mL (≈ 0.174 µM)

**Q.** And the “MIC Streptococcus pyogenes (GC 4563)” value ([2]; Streptococcus pyogenes (GC 4563))?
**A.** 0.5 µg/mL (≈ 0.348 µM)

**Q.** What about the “MIC Streptococcus pneumoniae (ATCC 6301)” value ([2]; strain ATCC 6301) of the same molecule?
**A.** 0.12 µg/mL (≈ 0.0836 µM)

**Q.** And the “MIC Streptococcus pneumoniae (GC 1894)” value ([2]; strain GC 1894)?
**A.** <0.06 µg/mL

**Q.** What about the “MIC Streptococcus pyogenes (GC 4563)” value ([2]; strain GC 4563) of the same molecule?
**A.** 0.5 µg/mL (≈ 0.348 µM)

**Q.** And the “MIC Streptococcus agalactiae (GC 4564)” value ([2]; strain GC 4564)?
**A.** 0.5 µg/mL (≈ 0.348 µM)

**Q.** What about the “MIC Streptococcus pneumoniae (GC 4565)” value ([2]; strain GC 4565) of the same molecule?
**A.** 0.25 µg/mL (≈ 0.174 µM)

**Q.** What about the “MIC Enterococcus avium (GC 4558)” value ([3]; Enterococcus avium (GC 4558)) of the same molecule?
**A.** 8 µg/mL (≈ 5.57 µM)

**Q.** What about the “MIC Enterococcus faecalis (ATCC 29212)” value ([3]; Enterococcus faecalis (ATCC 29212)) of the same molecule?
**A.** 4 µg/mL (≈ 2.79 µM)

**Q.** And the “MIC Enterococcus faecalis (GC 2242)” value ([3]; Enterococcus faecalis (GC 2242))?
**A.** 4 µg/mL (≈ 2.79 µM)

**Q.** And the “MIC Enterococcus faecalis (GC 2691)” value ([3]; Enterococcus faecalis (GC 2691))?
**A.** 4 µg/mL (≈ 2.79 µM)

**Q.** What about the “MIC Enterococcus faecalis (GC 3059)” value ([3]; Enterococcus faecalis (GC 3059)) of the same molecule?
**A.** 8 µg/mL (≈ 5.57 µM)

**Q.** What about the “MIC Enterococcus faecalis (GC 4552)” value ([3]; Enterococcus faecalis (GC 4552)) of the same molecule?
**A.** 4 µg/mL (≈ 2.79 µM)

**Q.** What about the “MIC Enterococcus faecalis (GC 4553)” value ([3]; Enterococcus faecalis (GC 4553)) of the same molecule?
**A.** 8 µg/mL (≈ 5.57 µM)

**Q.** What about the “MIC Enterococcus faecalis (GC 4554)” value ([3]; Enterococcus faecalis (GC 4554)) of the same molecule?
**A.** 4 µg/mL (≈ 2.79 µM)

**Q.** What about the “MIC Enterococcus faecalis (GC 6189)” value ([3]; Enterococcus faecalis (GC 6189)) of the same molecule?
**A.** 4 µg/mL (≈ 2.79 µM)

**Q.** What about the “MIC Enterococcus faecium (GC 2243)” value ([3]; Enterococcus faecium (GC 2243)) of the same molecule?
**A.** 4 µg/mL (≈ 2.79 µM)

**Q.** What about the “MIC Enterococcus faecium (GC 4556)” value ([3]; Enterococcus faecium (GC 4556)) of the same molecule?
**A.** 4 µg/mL (≈ 2.79 µM)

**Q.** And the “MIC Enterococcus faecium (GC 4557)” value ([3]; Enterococcus faecium (GC 4557))?
**A.** 2 µg/mL (≈ 1.39 µM)

**Q.** And the “MIC Enterococcus faecalis (ATCC 29212)” value ([3]; strain ATCC 29212)?
**A.** 4 µg/mL (≈ 2.79 µM)

**Q.** What about the “MIC Enterococcus faecalis (GC 2242)” value ([3]; strain GC 2242) of the same molecule?
**A.** 4 µg/mL (≈ 2.79 µM)

**Q.** What about the “MIC Enterococcus faecium (GC 2243)” value ([3]; strain GC 2243) of the same molecule?
**A.** 4 µg/mL (≈ 2.79 µM)

**Q.** What about the “MIC Enterococcus faecalis (GC 2691)” value ([3]; strain GC 2691) of the same molecule?
**A.** 4 µg/mL (≈ 2.79 µM)

**Q.** And the “MIC Enterococcus faecalis (GC 3059)” value ([3]; strain GC 3059)?
**A.** 8 µg/mL (≈ 5.57 µM)

**Q.** And the “MIC Enterococcus faecalis (GC 4552)” value ([3]; strain GC 4552)?
**A.** 4 µg/mL (≈ 2.79 µM)

**Q.** What about the “MIC Enterococcus faecalis (GC 4553)” value ([3]; strain GC 4553) of the same molecule?
**A.** 8 µg/mL (≈ 5.57 µM)

**Q.** And the “MIC Enterococcus faecalis (GC 4554)” value ([3]; strain GC 4554)?
**A.** 4 µg/mL (≈ 2.79 µM)

**Q.** And the “MIC Enterococcus faecium (GC 4556)” value ([3]; strain GC 4556)?
**A.** 4 µg/mL (≈ 2.79 µM)

**Q.** What about the “MIC Enterococcus faecium (GC 4557)” value ([3]; strain GC 4557) of the same molecule?
**A.** 2 µg/mL (≈ 1.39 µM)

**Q.** And the “MIC Enterococcus avium (GC 4558)” value ([3]; strain GC 4558)?
**A.** 8 µg/mL (≈ 5.57 µM)

**Q.** And the “MIC Enterococcus faecalis (GC 6189)” value ([3]; strain GC 6189)?
**A.** 4 µg/mL (≈ 2.79 µM)

**Q.** What about the “MIC Escherichia coli (ATCC 25922)” value ([4]; strain ATCC 25922) of the same molecule?
**A.** 64 µg/mL (≈ 44.6 µM)

**Q.** And the “MIC Escherichia coli (GC 4559)” value ([4]; strain GC 4559)?
**A.** 64 µg/mL (≈ 44.6 µM)

**Q.** And the “MIC Escherichia coli (GC 4560)” value ([4]; strain GC 4560)?
**A.** 1 µg/mL (≈ 0.697 µM)
